What was measured:
DU-145TR cells = assay: Gene expression profiling, DU-145 and DU-145TR; format: cell-based, human; conditions: DU-145TR vs DU-145, 2-fold cut off
Source text: In order to dissect the mechanisms underlying the anti-tumor effects of benzimidazoles in these cells, gene expression profiling was done comparing albendazole treated DU-145 and DU-145TR cells.

PC-3MLN4 cells [1] = assay: Experimental bone metastasis model, PC-3MLN4 cells expressing luciferase, intraosseous; format: in vivo, immunocompromised mice; conditions: 100 mg/kg for two weeks
Method: (§1) Using the metastatic prostate cancer PC-3MLN4 cells that expressed luciferase, the anti-tumor effects of benzimidazoles in a model of experimental bone metastasis were investigated. Cells were inoculated directly into a single tibia of immunocompromised mice via intraosseous injection. When bone lesions were confirmed to be growing via bioluminescent imaging, mice were randomized and treated with vehicle or with 100 mg/kg albendazole for two weeks. […] There was a significant difference in average luciferase signal between the two groups over the course of treatment (P<0.05).
At the end of study, the anatomical and radiographic characteristics of the bone lesions were evaluated with X-ray and micro-computerized tomography (CT) imaging.
as §1, with “(P<0.05) (see FIG. 13).” for “(P<0.05).”
At the end of study, the anatomical and radiographical characteristics of the bone lesions were evaluated with X-ray and micro-computerized tomography (CT) imaging.

PC-3MLN4 cells [2] = assay: Normalized mitotic index (histone H3 phospho-Serine-28), PC-3MLN4; format: cell-based; conditions: Homo sapiens, read-out: Normalized mitotic index PC-3MLN4, at 1 μM; normalized against vehicle-treated cells
Source text: The mitotic index for each agent was normalized against those obtained from vehicle-treated cells, and compared with the activity of paclitaxel, a known inducer of mitotic arrest.

lung metastases = assay: Lung metastasis model, survival; format: in vivo, mice
Method: In the lung metastasis model, treatment was initiated 10 days after the animals were inoculated with tumor cells. At this time, the lungs were riddled with metastases. Formulations containing a benzimidazole were injected into the peritoneum three times per week. Half of the control mice died by day 27, only 17 days after the animals started receiving treatments. In contrast, half of the mice treated with fenbendazole were still alive on day 37 and one-third were still alive at day 45.

CCCSc1ccc2nc(NC(=O)OC)[nH]c2c1 [Albendazole, albendazole]
expression of ER stress signaling genes (ATF-2, ATF-3, HERPUD1, CHOP, ANKRD1, GADD45alpha) (DU-145TR cells): differentially expressed
tumor growth (luciferase signal) compared to vehicle (PC-3MLN4 cells [1]): reduced tumor growth
Ki-67 labeling index of bone lesions (PC-3MLN4 cells [1]; P<0.005): reduction
apoptotic index of bone lesions (activated caspase-3 staining) (PC-3MLN4 cells [1]; P<0.005): increase
bone integrity (X-ray and micro-CT imaging) (PC-3MLN4 cells [1]; end of study): bone integrity was maintained
fold induction at 1 µM (PC-3MLN4 cells [2]): 1.8 to 2

COC(=O)Nc1nc2ccc(Sc3ccccc3)cc2[nH]1 [Fenbendazole, fenbendazole]
fraction of mice still alive at day 45 (lung metastases; i.p. three times per week from day 10 after inoculation): one-third
day on which half of the mice were still alive (lung metastases; i.p. three times per week from day 10 after inoculation (half of control mice died by day 27)): 37 days
prolonging the survival times compared with taxol (lung metastases; mouse, in vivo): equivalent to taxol

Source: US20120064008A1, “COMPOSITIONS FOR THE TREATMENT OF METASTATIC CANCER AND METHODS OF USE THEREOF” (priority 2009, published 2012)
